# Where a SMILES comes first, the peptide text is derived from it. Where no end group is shown, it is not given here.
# What was measured:
# HK-2 cells [1] = details: Wang et al., 2014; cited from earlier work
# MAPK signaling = details: Wang et al., 2014; cited from earlier work
# HK-2 cells [2] = test: In vitro model of cisplatin toxicity: HK-2 cell survival by the WST-1 method; assay type: cell-based, human
# Protocol: FIG. 1B is a graph depicting the effect of renalase peptides on survival of HK-2 cells exposed to 20 μM cisplatin for 24 hrs; cell survival is depicted as % change in survival compared to that in cisplatin-treated HK-2 cells without renalase peptides; cell survival was measured by the WST-1 method; RP-A220: mutated RP-220, and RP-19 and RP-128: control peptides; peptide concentration (μg/ml) indicated in top line; n=4, *=p<0.05. […]
# HK-2 cells (human proximal tubular line) obtained from ATTC (Manassas, Va., USA) were cultured in DMEM/F12 supplemented with glutamine, 10% FBS and antibiotics, and were maintained at 37° C. in 5% CO2. Cells were exposed to cisplatin (20 μM) in the presence or absence of recombinant renalase or renalase peptides for 24 hrs, and cell viability was assessed by the WST1 method (Roche Applied Science, Germany).
# ERK = test: MAPK signaling by immunoblot: ERK phosphorylation in HK-2 cells; assay type: cell-based, human; details: cisplatin alone, 1-60 min
# Excerpt: (§1) FIGS. 2A-2C, depict how RP-220 alters the pattern of MAPK activation in cisplatin treated cells. FIG. 2A is an image of a gel depicting MAPK phosphorylation with cisplatin alone (CP) and with CP and RP-220; representative study: p-p38: phosphorylated p38 MAPK; p-ERK: phosphorylated ERK. FIG. 2B is a graph depicting quantification of ERK activation. Signals were normalized to glyceraldehyde 3-phosphate dehydrogenase (GAPDH) loading control; n=3, *=P<0.05. FIG. 2C is a graph depicting quantification of p38 activation, signals normalized to GAPDH loading control; n=3, *=P<0.05.
# (§2) FIGS. 5A-5E, depict how PMCA4b inhibition abrogates renalase peptide mediated MAPK signaling and cytoprotection. […] is a series of panels depicting how PMCA4b inhibition abrogates RP-220 mediated ERK and p38 signaling in HK-2 cells; caloxin1b=peptide inhibitor of PMCA4; left panel: RP-220 mediated ERK and p38 activation, phospho=phosphorylated, representative blot; middle panel: inhibition of RP-220 mediated ERK and p38 activation by caloxin1b (100 μM); right panel: quantification of phosphorylated p38 (P-p38) and phosphorylated ERK (p-ERK); signals were normalized to glyceraldehyde 3-phosphate dehydrogenase (GAPDH) loading control; n=3, *=P<0.05. […]
# p38 MAPK = test: MAPK signaling by immunoblot: p38 phosphorylation in HK-2 cells; assay type: cell-based, human; details: cisplatin alone, 1-60 min
# Excerpt: as §1, §2
# HK-2 cells [3] = test: In vitro model of cisplatin toxicity: HK-2 cell survival by the WST-1 method; assay type: cell-based, human; details: control conditions, no cisplatin
# [4] = 20 μM cisplatin, 24 hrs, WST-1, range of peptide concentrations
compound,measurement,setting,value
"RP-Scr220: scrambled RP-220 control peptide, SEQ ID NO: 7, CSKRIFKVISSIEDNNERG (listed as Homo sapiens)",protection of cells,HK-2 cells [1],failed to protect cells
same,activation of MAPK signaling,MAPK signaling,did not activate MAPK signaling
"RP-128: control renalase peptide, SEQ ID NO: 2, FRHRVTQINLRDDKWEVSKQ, acetylated at the amino terminus (Ac-FRHRVTQINLRDDKWEVSKQ; listed as Homo sapiens)",survival of HK-2 cells exposed to cisplatin (protective effect),HK-2 cells [2]; [4],did not improve cell survival
CC[C@H](C)[C@H](NC(=O)[C@H](CCC(=O)O)NC(=O)[C@H](CO)NC(=O)[C@H](CO)NC(=O)[C@H](CCC(=O)O)NC(=O)[C@@H](NC(=O)[C@H](CC(N)=O)NC(=O)[C@H](CCCNC(=N)N)NC(=O)[C@H](CCCCN)NC(=O)[C@H](CCCCN)NC(=O)[C@H](CC(N)=O)NC(=O)[C@H](CC(=O)O)NC(=O)[C@@H](NC(=O)[C@H](CO)NC(=O)[C@@H](NC(=O)[C@H](Cc1ccccc1)NC(=O)[C@H](CCCNC(=N)N)NC(=O)[C@@H](NC(=O)[C@H](CS)NC(C)=O)[C@@H](C)CC)C(C)C)[C@@H](C)CC)[C@@H](C)CC)C(=O)NCC(=O)O [RP-220] (Ac-CIRFVSIDNKKRNIESSEIG-OH),protective effect against cisplatin cytotoxicity after down-regulation of PMCA4b expression,"HK-2 cells [2]; HK-2 cells, PMCA4b siRNA, 20 μM cisplatin 24 hrs, peptide 15 μg/ml",abrogated
same,relative potency at protecting HK-2 cells against cisplatin cytotoxicity (concentration dependent effects),"HK-2 cells [2]; dose response curve, 20 μM cisplatin, 24 hrs",equipotent
"N.N.[Cl][Pt][Cl] [Cisplatin, cisplatin]",ERK phosphorylation,ERK,modestly increased
same,p38 phosphorylation,p38 MAPK,modestly increased
"C[S+]([O-])c1ccc(-c2nc(-c3ccncc3)c(-c3ccc(F)cc3)[nH]2)cc1 (stereo not shown) [SB203580, 4-[4′-Fluorophenyl]-2-[4′-methylsulfinylphenyl]-5-[4′-pyridyl]-imidazole, reference compound]",survival of HK-2 cells with inhibitor alone,HK-2 cells [3],did not adversely affect the survival
same,effect of kinase inhibitor on protection by RP-220 against cisplatin,"HK-2 cells [2]; HK-2 cells, 20 μM cisplatin 24 hrs plus RP-220, SB203580 10 μM",completely abrogated
"RP-224: renalase peptide, SEQ ID NO: 3, CVSIDNKKRNI, acetylated at the amino terminus (Ac-CVSIDNKKRNI; listed as Homo sapiens)",survival of HK-2 cells exposed to cisplatin (protective effect),"HK-2 cells [2]; 20 μM cisplatin, 24 hrs, test substance 100 μg/ml",protected HK-2 cells to a similar degree
"RP-19: control renalase peptide, SEQ ID NO: 1, LLRRQTSGPLYLAVWDKAED, acetylated at the amino terminus (Ac-LLRRQTSGPLYLAVWDKAED; listed as Homo sapiens)",survival of HK-2 cells exposed to cisplatin (protective effect),HK-2 cells [2]; [4],did not improve cell survival
"RP-A220: mutated RP-220, SEQ ID NO: 6, IRFVSIDNAAANIESSEIG (listed as Homo sapiens)",survival of HK-2 cells exposed to cisplatin (protective effect),HK-2 cells [2]; [4],did not improve cell survival
same,survival of HK-2 cells exposed to cisplatin (protective effect),"HK-2 cells [2]; 20 μM cisplatin, 24 hrs, test substance 80 μg/ml",exacerbated cisplatin toxicity
